Among the data in ChEMBL document CHEMBL5653615 (J Biol Chem, 2013) are inhibition values, retold here.

Assay [1] addresses RAF proto-oncogene serine/threonine-protein kinase (Homo sapiens) (UniProt P04049). The experiment in a line: Inhibition of human RAF1 at 1.82 nM by HotSpot assay relative to control.
Assay [2] addresses T1, Testis-specific serine/threonine-protein kinase 2 (Homo sapiens) (UniProt Q96PF2).
T1 sequence (whole entry): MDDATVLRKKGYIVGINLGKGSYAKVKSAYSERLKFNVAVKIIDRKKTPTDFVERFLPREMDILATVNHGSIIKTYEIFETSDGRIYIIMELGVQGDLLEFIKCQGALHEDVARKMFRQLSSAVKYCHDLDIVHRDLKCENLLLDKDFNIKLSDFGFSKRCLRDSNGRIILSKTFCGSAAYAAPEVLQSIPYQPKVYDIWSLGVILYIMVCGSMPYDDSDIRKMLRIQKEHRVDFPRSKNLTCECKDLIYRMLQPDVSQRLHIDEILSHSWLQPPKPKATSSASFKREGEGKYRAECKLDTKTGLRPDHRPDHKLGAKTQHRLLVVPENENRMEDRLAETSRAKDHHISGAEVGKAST
The experiment in a line: Inhibition of human TSSK2 at 1.82 nM by HotSpot assay relative to control.

In assay [3] the target is T2, Muscle, skeletal receptor tyrosine-protein kinase (Homo sapiens) (UniProt O15146).
T2 sequence (whole entry): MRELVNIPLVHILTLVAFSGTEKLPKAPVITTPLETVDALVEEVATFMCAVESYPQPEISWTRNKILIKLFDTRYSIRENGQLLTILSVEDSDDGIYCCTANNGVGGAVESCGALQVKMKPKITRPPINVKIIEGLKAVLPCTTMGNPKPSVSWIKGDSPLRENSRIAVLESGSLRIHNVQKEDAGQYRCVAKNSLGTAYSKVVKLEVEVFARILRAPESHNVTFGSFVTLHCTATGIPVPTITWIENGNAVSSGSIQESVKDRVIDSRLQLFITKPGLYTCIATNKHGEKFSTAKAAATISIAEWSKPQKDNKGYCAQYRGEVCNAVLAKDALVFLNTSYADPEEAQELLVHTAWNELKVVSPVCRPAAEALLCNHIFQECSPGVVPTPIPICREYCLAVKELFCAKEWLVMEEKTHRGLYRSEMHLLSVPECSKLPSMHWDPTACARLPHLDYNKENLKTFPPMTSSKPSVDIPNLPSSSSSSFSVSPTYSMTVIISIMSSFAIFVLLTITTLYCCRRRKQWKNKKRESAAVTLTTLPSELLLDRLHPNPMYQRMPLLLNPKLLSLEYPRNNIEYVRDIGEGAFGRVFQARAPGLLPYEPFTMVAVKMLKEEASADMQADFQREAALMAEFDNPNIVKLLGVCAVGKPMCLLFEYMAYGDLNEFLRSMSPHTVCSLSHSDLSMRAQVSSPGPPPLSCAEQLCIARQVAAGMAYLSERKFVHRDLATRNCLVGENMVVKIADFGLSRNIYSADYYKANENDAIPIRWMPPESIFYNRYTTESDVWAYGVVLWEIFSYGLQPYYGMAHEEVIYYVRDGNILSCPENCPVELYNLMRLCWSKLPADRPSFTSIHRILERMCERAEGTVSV
The experiment in a line: Inhibition of human MUSK at 1.82 nM by HotSpot assay relative to control.

The target in assay [4] is Calcium/calmodulin-dependent protein kinase type 1 (Homo sapiens) (UniProt Q14012). The experiment in a line: Inhibition of human CAMK1a at 18.6 nM by HotSpot assay relative to control.
Sequence of Calcium/calmodulin-dependent protein kinase type 1 (Homo sapiens) (Q14012 whole entry, looked up, the tested form may be a part): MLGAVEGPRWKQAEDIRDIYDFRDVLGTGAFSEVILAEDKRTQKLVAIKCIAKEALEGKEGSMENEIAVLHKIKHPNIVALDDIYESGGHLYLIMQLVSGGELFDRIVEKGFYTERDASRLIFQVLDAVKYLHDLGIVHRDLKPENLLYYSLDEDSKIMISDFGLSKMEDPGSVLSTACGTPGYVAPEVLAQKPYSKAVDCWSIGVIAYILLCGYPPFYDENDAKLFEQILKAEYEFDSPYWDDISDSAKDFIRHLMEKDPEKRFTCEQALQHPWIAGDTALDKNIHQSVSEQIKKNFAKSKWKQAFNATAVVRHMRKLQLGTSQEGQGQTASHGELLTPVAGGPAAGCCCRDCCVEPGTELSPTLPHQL
In assay [5] the target is LIM domain kinase 1 (Homo sapiens) (UniProt P53667). The experiment in a line: Inhibition of human LIMK1 at 18.6 nM by HotSpot assay relative to control.
Sequence of LIM domain kinase 1 (Homo sapiens) (P53667 whole entry, looked up, the tested form may be a part): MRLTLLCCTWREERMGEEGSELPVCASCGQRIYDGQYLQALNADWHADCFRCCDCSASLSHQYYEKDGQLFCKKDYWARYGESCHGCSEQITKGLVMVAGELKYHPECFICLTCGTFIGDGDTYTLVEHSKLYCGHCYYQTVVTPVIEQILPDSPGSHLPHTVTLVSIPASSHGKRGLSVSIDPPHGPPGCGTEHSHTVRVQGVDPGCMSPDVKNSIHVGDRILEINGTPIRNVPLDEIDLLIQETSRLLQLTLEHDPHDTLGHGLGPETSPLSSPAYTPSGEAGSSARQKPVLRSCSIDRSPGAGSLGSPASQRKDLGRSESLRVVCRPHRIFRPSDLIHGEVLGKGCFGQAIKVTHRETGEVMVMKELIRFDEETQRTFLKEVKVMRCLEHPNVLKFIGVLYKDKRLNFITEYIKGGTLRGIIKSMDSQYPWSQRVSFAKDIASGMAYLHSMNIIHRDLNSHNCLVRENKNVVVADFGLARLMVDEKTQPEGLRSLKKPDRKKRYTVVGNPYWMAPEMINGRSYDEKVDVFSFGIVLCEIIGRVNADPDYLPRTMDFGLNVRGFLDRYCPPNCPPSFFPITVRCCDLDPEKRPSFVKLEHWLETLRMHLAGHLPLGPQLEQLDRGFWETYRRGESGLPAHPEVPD
In assay [6] the target is T3, G protein-coupled receptor kinase 3 (Homo sapiens) (UniProt P35626).
T3 sequence (whole entry): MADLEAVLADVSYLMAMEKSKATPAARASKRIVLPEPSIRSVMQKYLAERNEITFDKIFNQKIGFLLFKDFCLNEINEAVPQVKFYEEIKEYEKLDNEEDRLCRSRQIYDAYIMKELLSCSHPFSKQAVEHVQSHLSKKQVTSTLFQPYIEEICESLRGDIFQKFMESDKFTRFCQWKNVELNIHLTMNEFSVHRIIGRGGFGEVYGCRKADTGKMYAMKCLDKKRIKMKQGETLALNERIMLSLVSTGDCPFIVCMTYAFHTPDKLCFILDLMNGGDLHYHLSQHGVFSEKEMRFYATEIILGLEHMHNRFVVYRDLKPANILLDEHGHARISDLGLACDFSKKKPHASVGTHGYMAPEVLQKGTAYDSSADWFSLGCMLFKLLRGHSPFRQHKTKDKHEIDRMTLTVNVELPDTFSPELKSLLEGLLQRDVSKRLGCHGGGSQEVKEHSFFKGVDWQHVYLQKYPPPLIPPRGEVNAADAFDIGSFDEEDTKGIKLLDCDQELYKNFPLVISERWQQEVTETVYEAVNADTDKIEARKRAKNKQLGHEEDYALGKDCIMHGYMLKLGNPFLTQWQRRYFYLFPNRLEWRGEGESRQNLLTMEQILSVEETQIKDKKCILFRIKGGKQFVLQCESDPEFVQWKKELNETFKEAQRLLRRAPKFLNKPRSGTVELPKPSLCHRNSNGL
The experiment in a line: Inhibition of human GRK3 at 18.6 nM by HotSpot assay relative to control.

For assay [7], the target named is Tyrosine-protein kinase HCK (Homo sapiens) (UniProt P08631). The experiment in a line: Inhibition of human HCK at 18.6 nM by HotSpot assay relative to control.
Sequence of Tyrosine-protein kinase HCK (Homo sapiens) (P08631 2-526 limits assumed): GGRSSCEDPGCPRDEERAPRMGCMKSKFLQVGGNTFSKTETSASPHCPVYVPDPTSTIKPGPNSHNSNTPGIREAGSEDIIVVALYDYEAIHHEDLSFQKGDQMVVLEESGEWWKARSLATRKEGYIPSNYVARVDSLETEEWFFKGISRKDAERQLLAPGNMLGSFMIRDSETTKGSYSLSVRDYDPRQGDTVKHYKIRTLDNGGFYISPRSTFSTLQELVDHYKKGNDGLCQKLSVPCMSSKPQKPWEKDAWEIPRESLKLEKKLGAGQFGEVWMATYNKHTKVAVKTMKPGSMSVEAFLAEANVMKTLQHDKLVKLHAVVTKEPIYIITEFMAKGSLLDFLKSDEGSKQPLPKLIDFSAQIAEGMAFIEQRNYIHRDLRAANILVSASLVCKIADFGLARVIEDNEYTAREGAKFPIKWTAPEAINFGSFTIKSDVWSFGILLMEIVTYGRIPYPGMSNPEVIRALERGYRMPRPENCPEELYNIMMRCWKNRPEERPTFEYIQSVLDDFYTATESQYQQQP

Sequence of RAF proto-oncogene serine/threonine-protein kinase (Homo sapiens) (P04049 whole entry): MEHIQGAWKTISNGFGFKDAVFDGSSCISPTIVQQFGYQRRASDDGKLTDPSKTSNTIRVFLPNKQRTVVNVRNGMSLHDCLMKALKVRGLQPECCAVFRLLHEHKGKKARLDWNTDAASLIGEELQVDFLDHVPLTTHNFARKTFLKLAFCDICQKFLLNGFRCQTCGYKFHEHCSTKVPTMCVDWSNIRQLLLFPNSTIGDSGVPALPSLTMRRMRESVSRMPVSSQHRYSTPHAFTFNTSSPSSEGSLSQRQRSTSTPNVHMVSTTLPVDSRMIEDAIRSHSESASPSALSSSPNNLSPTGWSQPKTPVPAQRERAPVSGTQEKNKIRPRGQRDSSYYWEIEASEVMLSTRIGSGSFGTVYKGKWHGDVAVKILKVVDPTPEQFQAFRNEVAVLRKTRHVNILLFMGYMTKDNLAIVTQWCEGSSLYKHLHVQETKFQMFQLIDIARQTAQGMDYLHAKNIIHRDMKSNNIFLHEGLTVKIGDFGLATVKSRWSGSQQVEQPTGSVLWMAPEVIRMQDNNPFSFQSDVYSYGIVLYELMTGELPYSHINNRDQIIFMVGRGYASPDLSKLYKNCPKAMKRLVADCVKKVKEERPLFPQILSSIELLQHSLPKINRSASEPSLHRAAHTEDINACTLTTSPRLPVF

As to `C[C@@]1(C(=O)Nc2ccc(F)nc2)CCCN1c1nc(Nc2cc(C3CC3)n[nH]2)c2cccn2n1`, the inhibition – broadly, the relative decrease from the control value, in per cent – was -9.08% in assay [1], -1.46% in assay [2] and -0.39% in assay [3].

Consider `C[C@]1(O)C[C@@H](c2nc(-c3ccc4ccc(-c5ccccc5)nc4c3)c3c(N)nccn32)C1`, for which the inhibition is 9.19% in assay [4], -8.11% in assay [5], -0.17% in assay [6] and 10.3% in assay [7].
